Test results published in US12304890B2, “R-type pyridyloxycarboxylic acid, salt and ester derivative thereof, and preparation method therefor, and herbicidal composition and application thereof” (Qingdao Kingagroot Chemical Compound Co., Ltd., priority 2018, dated 2025).

What was measured:
Type in all cases: in vivo
[1] = test system: Monocotyledonous and dicotyledonous weed seeds and main crop seeds; assay: Post-emergence test experiment, other weeds and crops (Table 4, 1000 g a.i./ha); conditions: 3 weeks in greenhouse, fresh weight inhibition
How it was run: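 Weed and crop seeds (wheat, corn, rice, soybean, cotton, oilseed, millet, sorghum) sown in soil pots in a greenhouse and sprayed at 2-3 leaf stage, 2 weeks after sowing. Compound in acetone/tween-80 with methyl oleate concentrate (1.5 L/ha) as synergist. Effect recorded as fresh-weight growth inhibition rate.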

Digitaria sanguinalis = assay: Post-emergence test experiment, Digitaria sanguinalis; conditions: 1000 g a.i./ha, 3 weeks in greenhouse, fresh weight inhibition
Procedure: (§1) The above described growth inhibition rate is fresh weight inhibition rate.
(§2) Post-emergence test experiment: Monocotyledonous and dicotyledonous weed seeds and main crop seeds (i. e. wheat, corn, rice, soybean, cotton, oilseed, millet and sorghum.) were put into a plastic pot loaded with soil. Then covered with 0.5-2 cm soil, the seeds were allowed to grow in good greenhouse environment. The test plants were treated at 2-3 leaf stage 2 weeks after sowing. The test compounds of the invention were dissolved with acetone respectively, then added with tween-80, and using 1.5 liters per hectare of an emulsible concentrate of methyl oleate as a synergist, and diluted by certain amount of water to certain concentration. The solution was sprayed to the plants with a sprayer. Then the plants were cultured for 3 weeks in the greenhouse, and the experiment result of weed controlling effect was listed in tables 4-5.

Echinochloa crusgalli = assay: Post-emergence test experiment, Echinochloa crusgalli; conditions: 1000 g a.i./ha, 3 weeks in greenhouse, fresh weight inhibition
Procedure: as §1, §2

Row | Structure (SMILES) | Activity level (growth inhibition rate), Abutilon theophrasti Medic. [1] | Activity level (growth inhibition rate), Galium aparine [1] | Activity level (growth inhibition rate), Monochoria Vaginalis [1] | Activity level (growth inhibition rate), Digitaria sanguinalis (Digitaria sanguinalis) | Activity level (growth inhibition rate), Echinochloa crusgalli (Echinochloa crusgalli)
1 | CC(Oc1nc(F)c(Cl)c(N)c1Cl)C(=O)OCc1ccccc1Br (centres unmarked) [Compound 2-320] | 5 (Level 5: the growth inhibition rate is greater than 85%) | 5 (Level 5: the growth inhibition rate is greater than 85%) | 5 (Level 5: the growth inhibition rate is greater than 85%) | 5 (Level 5: the growth inhibition rate is greater than 85%) | 5 (Level 5: the growth inhibition rate is greater than 85%)
2 | CC(Oc1nc(F)c(Cl)c(N)c1Cl)C(=O)OCc1ccccc1C(F)(F)F (centres unmarked) [Compound 2-327] | 5 (Level 5: the growth inhibition rate is greater than 85%) | 5 (Level 5: the growth inhibition rate is greater than 85%) | 5 (Level 5: the growth inhibition rate is greater than 85%) | 5 (Level 5: the growth inhibition rate is greater than 85%) | 5 (Level 5: the growth inhibition rate is greater than 85%)
3 | CC(C)COC(=O)[C@@H](C)Oc1nc(F)c(Cl)c(N)c1Cl [Compound 2-79] | 5 (Level 5: the growth inhibition rate is greater than 85%) | 5 (Level 5: the growth inhibition rate is greater than 85%) | 5 (Level 5: the growth inhibition rate is greater than 85%) | 5 (Level 5: the growth inhibition rate is greater than 85%) | 5 (Level 5: the growth inhibition rate is greater than 85%)
4 | CC(Oc1nc(F)c(Cl)c(N)c1Cl)C(=O)[S-].C[N+](C)(C)C (centres unmarked) [Compound 2-4] | 5 (Level 5: the growth inhibition rate is greater than 85%) | 5 (Level 5: the growth inhibition rate is greater than 85%) | 5 (Level 5: the growth inhibition rate is greater than 85%) | 5 (Level 5: the growth inhibition rate is greater than 85%) | 5 (Level 5: the growth inhibition rate is greater than 85%)
5 | C[C@@H](Oc1nc(F)c(Cl)c(N)c1Cl)C(=O)SCc1cccnc1 [Compound 2-347] | 5 (Level 5: the growth inhibition rate is greater than 85%) | 5 (Level 5: the growth inhibition rate is greater than 85%) | 5 (Level 5: the growth inhibition rate is greater than 85%) | 5 (Level 5: the growth inhibition rate is greater than 85%) | 5 (Level 5: the growth inhibition rate is greater than 85%)
6 | C[C@@H](Oc1nc(F)c(Cl)c(N)c1Cl)C(=O)OCc1ccccc1C#N [Compound 2-333] | 5 (Level 5: the growth inhibition rate is greater than 85%) | 5 (Level 5: the growth inhibition rate is greater than 85%) | 5 (Level 5: the growth inhibition rate is greater than 85%) | 5 (Level 5: the growth inhibition rate is greater than 85%) | 5 (Level 5: the growth inhibition rate is greater than 85%)
7 | C[C@@H](Oc1nc(F)c(Cl)c(N)c1Cl)C(=O)OCc1cccc2ccccc12 [Compound 2-341] | 5 (Level 5: the growth inhibition rate is greater than 85%) | 5 (Level 5: the growth inhibition rate is greater than 85%) | 5 (Level 5: the growth inhibition rate is greater than 85%) | 5 (Level 5: the growth inhibition rate is greater than 85%) | 5 (Level 5: the growth inhibition rate is greater than 85%)
8 | COc1ccc(SC(=O)C(C)Oc2nc(F)c(Cl)c(N)c2Cl)cc1 (centres unmarked) [Compound 2-358] | 5 (Level 5: the growth inhibition rate is greater than 85%) | 5 (Level 5: the growth inhibition rate is greater than 85%) | 5 (Level 5: the growth inhibition rate is greater than 85%) | 5 (Level 5: the growth inhibition rate is greater than 85%) | 5 (Level 5: the growth inhibition rate is greater than 85%)
9 | C[C@@H](Oc1nc(F)c(Cl)c(N)c1Cl)C(=O)OCc1ccc(C#N)cc1 [Compound 2-337] | 5 (Level 5: the growth inhibition rate is greater than 85%) | 5 (Level 5: the growth inhibition rate is greater than 85%) | 5 (Level 5: the growth inhibition rate is greater than 85%) | 5 (Level 5: the growth inhibition rate is greater than 85%) | 5 (Level 5: the growth inhibition rate is greater than 85%)
10 | CC(Oc1nc(F)c(Cl)c(N)c1Cl)C(=O)OC1CCC1 (centres unmarked) [Compound 2-264] | 5 (Level 5: the growth inhibition rate is greater than 85%) | 5 (Level 5: the growth inhibition rate is greater than 85%) | 5 (Level 5: the growth inhibition rate is greater than 85%) | 5 (Level 5: the growth inhibition rate is greater than 85%) | 5 (Level 5: the growth inhibition rate is greater than 85%)
11 | CCCCCCCCSC(=O)[C@@H](C)Oc1nc(F)c(Cl)c(N)c1Cl [Compound 2-156] | 5 (Level 5: the growth inhibition rate is greater than 85%) | 5 (Level 5: the growth inhibition rate is greater than 85%) | 5 (Level 5: the growth inhibition rate is greater than 85%) | 5 (Level 5: the growth inhibition rate is greater than 85%) | 5 (Level 5: the growth inhibition rate is greater than 85%)
12 | CC(Oc1nc(F)c(Cl)c(N)c1Cl)C(=O)SCc1ccccc1Cl (centres unmarked) [Compound 2-315] | 5 (Level 5: the growth inhibition rate is greater than 85%) | 5 (Level 5: the growth inhibition rate is greater than 85%) | 5 (Level 5: the growth inhibition rate is greater than 85%) | 5 (Level 5: the growth inhibition rate is greater than 85%) | 5 (Level 5: the growth inhibition rate is greater than 85%)
13 | COC(=O)CSC(=O)C(C)Oc1nc(F)c(Cl)c(N)c1Cl (centres unmarked) [Compound 2-290] | 5 (Level 5: the growth inhibition rate is greater than 85%) | 5 (Level 5: the growth inhibition rate is greater than 85%) | 5 (Level 5: the growth inhibition rate is greater than 85%) | 5 (Level 5: the growth inhibition rate is greater than 85%) | 5 (Level 5: the growth inhibition rate is greater than 85%)
14 | CCC(C)COC(=O)[C@@H](C)Oc1nc(F)c(Cl)c(N)c1Cl (some centres unmarked) [Compound 2-87] | 5 (Level 5: the growth inhibition rate is greater than 85%) | 5 (Level 5: the growth inhibition rate is greater than 85%) | 5 (Level 5: the growth inhibition rate is greater than 85%) | 5 (Level 5: the growth inhibition rate is greater than 85%) | 5 (Level 5: the growth inhibition rate is greater than 85%)
15 | C[C@@H](Oc1nc(F)c(Cl)c(N)c1Cl)C(=O)OCc1ccsc1 [Compound 2-351] | 5 (Level 5: the growth inhibition rate is greater than 85%) | 5 (Level 5: the growth inhibition rate is greater than 85%) | 5 (Level 5: the growth inhibition rate is greater than 85%) | 5 (Level 5: the growth inhibition rate is greater than 85%) | 5 (Level 5: the growth inhibition rate is greater than 85%)
16 | COCCOC(=O)C(C)Oc1nc(C)c(Cl)c(N)c1Cl (centres unmarked) [Compound 2-270] | 5 (Level 5: the growth inhibition rate is greater than 85%) | 5 (Level 5: the growth inhibition rate is greater than 85%) | 5 (Level 5: the growth inhibition rate is greater than 85%) | 5 (Level 5: the growth inhibition rate is greater than 85%) | 5 (Level 5: the growth inhibition rate is greater than 85%)
